The values that follow come from ChEMBL document CHEMBL4043116, “KBE009: An antimalarial bestatin-like inhibitor of the Plasmodium falciparum M1 aminopeptidase discovered in an Ugi multicomponent reaction-derived peptidomimetic library” (Bioorg Med Chem, 2017).

Activity calls are given as the source filed them. Unless noted, no cut-off for these calls is given here.

The test system of data set [1] is Plasmodium falciparum. Description: Inhibition of recombinant Plasmodium falciparum M1 aminopeptidase assessed as residual activity at 20 uM using Ala-AMC as substrate pretreated for 30 mins followed by substrate addition by fluorescence assay relative to control.
The test system of data set [2] is Plasmodium falciparum. Description: Antimalarial activity against synchronized ring stage of […] Plasmodium falciparum 3D7 infected in human erythrocytes assessed as parasite growth at 25 uM after 72 hrs by YOYO-1 staining based flow cytometric analysis relative to control. The data set is classed as functional.
Data set [3] deals with Plasmodium falciparum. Description: Antimalarial activity against synchronized ring stage of […] Plasmodium falciparum 3D7 infected in human erythrocytes assessed as parasite growth at 25 uM after 48 hrs by Giemsa staining based microscopic analysis. The data set is classed as functional, cell-based.
For the next data set, the system named is Erythrocyte. Description: Hemolytic activity against human erythrocytes at 25 uM measured after 48 hrs. The data set is classed as ADME, cell-based.
Data set [4] concerns Plasmodium falciparum. Kind of data set: Antimalarial activity against asynchronized chloroquine-resistant Plasmodium falciparum FcB1/Columbia assessed as reduction in [3H]-hypoxanthine incorporation by measuring parasite growth at 50 uM pretreated for 24 hrs followed by [3H]-hypoxanthine addition after 24 hrs by microbeta scintillation counting analysis relative to control. The format is functional. Details: scale not given: the % may be the effect or the level left.

Data set [5] concerns Plasmodium falciparum. Description: Antimalarial activity against asynchronized chloroquine-resistant Plasmodium falciparum FcB1/Columbia assessed as reduction in [3H]-hypoxanthine incorporation by measuring parasite growth at 5 uM pretreated for 24 hrs followed by [3H]-hypoxanthine addition after 24 hrs by microbeta scintillation counting analysis relative to control. The arrangement: scale not given: the % may be the effect or the level left. The format is functional.

For data set [6], the system named is Plasmodium falciparum. Description: Inhibition of Plasmodium falciparum M1 aminopeptidase at 200 uM using Ala-AMC as substrate by spectrofluorimetric assay.
Data set [7] can be described thus: Inhibition of recombinant Plasmodium falciparum M1 aminopeptidase using Ala-AMC as substrate pretreated for 30 mins followed by substrate addition by fluorescence assay.
Data set [8] deals with Plasmodium falciparum. Kind of data set: Antimalarial activity against asynchronized chloroquine-resistant Plasmodium falciparum FcB1/Columbia assessed as reduction in [3H]-hypoxanthine incorporation pretreated for 24 hrs followed by [3H]-hypoxanthine addition after 24 hrs by microbeta scintillation counting analysis. The data set is classed as functional.
Data set [9] has as its system Plasmodium falciparum. Description: Antimalarial activity against synchronized ring stage of […] Plasmodium falciparum 3D7 infected in human erythrocytes after 48 hrs by Giemsa staining based microscopic analysis. The format is functional, cell-based. Conditions: 3D7, 48 h.
Data set [10] concerns Plasmodium falciparum. Description: Inhibition of Plasmodium falciparum M1 aminopeptidase at 20 uM using Arg-AMC as substrate measured after 5 mins by fluorescence assay relative to control.
The nature of data set [11]: Inhibition of Plasmodium falciparum M1 aminopeptidase using Ala-AMC as substrate by spectrofluorimetric assay.
For data set [12], the target named is T1, Aminopeptidase N (Sus scrofa) (UniProt P15145).
T1 sequence (whole entry): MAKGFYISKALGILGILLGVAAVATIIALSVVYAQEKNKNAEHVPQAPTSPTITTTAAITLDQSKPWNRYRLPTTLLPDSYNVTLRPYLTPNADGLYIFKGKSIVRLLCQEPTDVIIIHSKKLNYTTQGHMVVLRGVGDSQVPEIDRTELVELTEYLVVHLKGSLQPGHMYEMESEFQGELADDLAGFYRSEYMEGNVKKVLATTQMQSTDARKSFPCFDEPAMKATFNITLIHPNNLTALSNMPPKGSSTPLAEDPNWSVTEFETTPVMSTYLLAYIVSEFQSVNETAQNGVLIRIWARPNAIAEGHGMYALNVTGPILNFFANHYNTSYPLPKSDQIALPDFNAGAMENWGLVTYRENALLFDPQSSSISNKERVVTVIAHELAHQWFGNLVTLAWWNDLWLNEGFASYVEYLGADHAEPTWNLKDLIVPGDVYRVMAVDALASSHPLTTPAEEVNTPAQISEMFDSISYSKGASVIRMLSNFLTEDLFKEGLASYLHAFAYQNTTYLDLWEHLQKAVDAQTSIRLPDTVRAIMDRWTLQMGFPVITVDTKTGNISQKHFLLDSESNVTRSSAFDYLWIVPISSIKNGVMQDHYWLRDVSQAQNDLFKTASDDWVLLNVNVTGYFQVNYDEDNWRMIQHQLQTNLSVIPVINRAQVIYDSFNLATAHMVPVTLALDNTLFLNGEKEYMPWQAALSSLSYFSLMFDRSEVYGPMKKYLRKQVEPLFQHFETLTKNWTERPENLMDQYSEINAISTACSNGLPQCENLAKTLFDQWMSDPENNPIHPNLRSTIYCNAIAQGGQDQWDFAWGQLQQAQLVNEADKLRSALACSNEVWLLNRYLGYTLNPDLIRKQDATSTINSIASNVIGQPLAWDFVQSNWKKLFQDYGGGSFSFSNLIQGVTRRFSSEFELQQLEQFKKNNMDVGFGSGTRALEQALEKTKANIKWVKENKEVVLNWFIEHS
Kind of data set: Inhibition of porcine kidney cortex aminopeptidase N up to 100 uM using Leu-p-nitroanilide as substrate […].

A short description of data set [13]: Selectivity index, ratio of Ki for recombinant Plasmodium falciparum M1 aminopeptidase to Ki for porcine kidney cortex aminopeptidase N.
The subject of the next data set is HUVEC. Description: Cytotoxicity against HUVEC assessed as reduction in cell viability up to 200 uM by MTT assay. Conditions: human. The format is cell-based.
In data set [14] the test system is Plasmodium falciparum. Description: Antimalarial activity against synchronized ring stage of […] Plasmodium falciparum 3D7 infected in human erythrocytes assessed as parasite growth at 1 uM after 72 hrs by YOYO-1 staining based flow cytometric analysis relative to control. The data set is classed as functional.

As to `CC(C)C[C@@H](C(=O)O)N(C(=O)[C@@H](N)Cc1ccccc1)C(C(=O)NC(C)(C)C)c1ccccc1` (some centres undefined), the Activity in the data set on Plasmodium falciparum [1] was 69%; in the data set on Plasmodium falciparum [2], 30%; in the data set with Erythrocyte, “Non-Toxic”; with Plasmodium falciparum [4], 2 - 2.5%; in the data set with Plasmodium falciparum [5] it was 49 - 100%. The outcome in the data set with Plasmodium falciparum [3] was Active. Further, the inhibition result in the data set with Plasmodium falciparum [6] was “inactive”.

For the molecule `CC(C)C[C@H](NC(=O)[C@@H](O)[C@H](N)Cc1ccccc1)C(=O)O` [UBENIMEX], the Activity with Plasmodium falciparum [1] was 1.2%; with Plasmodium falciparum [2], 36%; in the data set on Erythrocyte it was “Non-Toxic”. Also, the Ki in [7] was under 0.16 µM. For the same molecule, the IC50 was 3.3 µM with Plasmodium falciparum [8], 21 µM in the data set with Plasmodium falciparum [9] and under 0.31 µM in data set [11]. The inhibition in the data set on Plasmodium falciparum [10] turned out to be 50%.

Turning to `CC(C)C[C@@H](C(=O)O)N(C(=O)[C@@H](N)Cc1ccccc1)C(C(=O)NCc1ccccc1)c1ccco1` (some centres undefined), the Activity is 48% in the data set with Plasmodium falciparum [1]; 54% with Plasmodium falciparum [2]; “Non-Toxic” in the data set with Erythrocyte; 2.5 - 4.5% in the data set with Plasmodium falciparum [4]; 83.5 - 93.5% in the data set on Plasmodium falciparum [5]; “Non-Toxic” in the data set with HUVEC. In addition, the outcome in the data set on Plasmodium falciparum [3] was Active. In addition, the Ki in data set [7] was determined as 0.4 µM. Also, the IC50 is 16 µM with Plasmodium falciparum [8], 18 µM in the data set on Plasmodium falciparum [9] and 82 µM in data set [11]. Besides, in data set [12], the inhibition result was “inactive”. Further, in data set [13], the Ratio Ki was over 250.

As to `CCN(CC)CCCC(C)Nc1ccnc2cc(Cl)ccc12` (centres undefined) [CHLOROQUINE], the Activity in the data set on Plasmodium falciparum [14] turned out to be 25.9%.
